# From patent publication US20230165867A1 (CHENGDU BAIYU PHARMACEUTICAL CO., LTD., priority 2020, published 2023)
# Where two headings read alike, the source gives them in different places.
# Legend:
# [1] = Pharmacokinetic assay in ICR mice (i.v. and p.o.); format: in vivo; conditions: mouse, plasma, male ICR mice; for half-life: read-out: T½ (converted); for bioavailability: po 10 mg/kg vs iv 1 mg/kg
# Experimental: ICR mice were purchased from Beijing Vital River Laboratory Animal Technology Co., Ltd.
# 3.2 Experimental procedure • (1) Healthy male ICR mice (18-22 g) were prepared, with 18 mice for each compound. The mice were divided into 2 groups (an i.v. group and a p.o. group), with 9 mice per group. 3 mice were picked for blood collection at each time point. • (2) After the animals were fasted overnight (with free access to water), the compound of the present invention dissolved (or suspended) in a solvent of 5% DMSO and 95% 30% HP-β-CD (v:v) was administered via the tail vein (i.v., 1 mg/kg) or intragastrically (p.o., 10 mg/kg), respectively. • (3) For the i.v. group, 0.1 mL blood was collected from the submandibular vein 5 min, 15 min, 0.5 h, 1 h, 2 h, 4 h, 8 h, 12 h, and 24 h after administration, respectively, anticoagulated with EDTA-K2, and centrifuged at 4° C. for 5 min to obtain plasma, which was stored at -20° C. until testing. (4) For the p.o. group, 0.1 mL blood was collected from the submandibular vein before administration and 15 min, 0.5 h, 1 h, 2 h, 4 h, 6 h, 8 h, 12 h, and 24 h after administration, and treated in the same manner as that for the intravenous group. • (5) The concentration of the compound of the present invention in plasma was measured by LC/MS/MS. • (6) Calculation and fitting were performed with Analyst 1.6 from AB Company, and the results are shown in Table 3.
# DNA-PK kinase = molecular target: T1, DNA-PK kinase (Homo sapiens, UniProt P78527); experiment: Inhibition assay of DNA-PK kinase (Promega kit, ADP-Glo chemiluminescence); format: biochemical; conditions: 50 µM ATP, 37° C., 60 min; read-out: IC50 (nM), inhibitory activity on DNA-PK kinase
# T1 construct: purchased Promega V4107
# Experimental: The inhibitory activity of the compounds on DNA-PK kinase was measured by using a DNA-PK kinase assay kit (purchased from Promega, Cat.#: V4107, Lot: 0000366495). The results were quantified by chemiluminescence, and the detailed experimental protocol was as follows: • i. An ADP-fluorescence standard curve over a range of concentrations was plotted according to the kit instructions; • ii. […] The mixtures were mixed well, centrifuged (1000 rpm, 30 s), and incubated at 37° C. for 60 min; • iv. 5 µL of ADP-Glo™ Reagent was added to stop the reaction, which was then mixed well, centrifuged (1000 rpm, 30 s), and incubated at room temperature for 40 min; • v. 10 µL Kinase Detection Reagent was added, and the mixture was mixed well by shaking, centrifuged (1000 rpm, 30 s), and incubated at room temperature for 30 min; • vi. The […] was measured by using a microplate reader (Thermo fisher, Varioskan LUX).
SMILES,IC50 (DNA-PK kinase) [nM],other results
"[2H]C([2H])([2H])n1c(=O)n(C2CCOCC2)c2nc(Nc3ccc(C#N)cc3C)ncc21 (single isomer, unassigned) [Compound 6, 3-Methyl-4-((7-(methyl-d3)-8-oxo-9-(tetrahydro-2H-pyran-4-yl)-8,9-dihydro-7H-purin-2-yl)amino)benzonitrile]",–,"AUC ([1]; iv, 1 mg/kg): 82.4 ng·h/mL; half-life ([1]; iv, 1 mg/kg): 17.9 min; bioavailability [1]: 179%; AUC ([1]; po, 10 mg/kg): 1480 ng·h/mL; Cmax ([1]; po, 10 mg/kg): 1220 ng/mL; half-life ([1]; po, 10 mg/kg): 57.8 min"
"Cc1cc(S(C)(=O)=O)ccc1Nc1ncc2c(n1)n(C1CCOCC1)c(=O)n2C [Compound 1, 7-Methyl-2-((2-methyl-4-(methylsulfonyl)phenyl)amino)-9-(tetrahydro-2H-pyran-4-yl)-7,9-dihydro-8H-purin-8-one]",10.1,–
"Cc1cc(C(F)(F)F)ccc1Nc1ncc2c(n1)n(C1CCOCC1)c(=O)n2C [Compound 3, 7-Methyl-2-((2-methyl-4-(trifluoromethyl)phenyl)amino)-9-(tetrahydro-2H-pyran-4-yl)-7,9-dihydro-8H-purin-8-one]",18.6,–
"Cc1cc(Cl)ccc1Nc1ncc2c(n1)n(C1CCOCC1)c(=O)n2C [Compound 4, 2-((4-chloro-2-methylphenyl)amino)-7-methyl-9-(tetrahydro-2H-pyran-4-yl)-7,9-dihydro-8H-purin-8-one]",8.3,–
"Cc1cc(F)ccc1Nc1ncc2c(n1)n(C1CCOCC1)c(=O)n2C [Compound 7, 2-((4-fluoro-2-methylphenyl)amino)-7-methyl-9-(tetrahydro-2H-pyran-4-yl)-7,9-dihydro-8H-purin-8-one]",5.47,–
"Cc1ccc(C#N)cc1Nc1ncc2c(n1)n(C1CCOCC1)c(=O)n2C [Compound 15, 4-Methyl-3-((7-methyl-8-oxo-9-(tetrahydro-2H-pyran-4-yl)-8,9-dihydro-7H-purin-2-yl)amino)benzonitrile]",5.28,–
"Cc1cc(C#N)ncc1Nc1ncc2c(n1)n(C1CCOCC1)c(=O)n2C [Compound 17, 4-Methyl-5-((7-methyl-8-oxo-9-(tetrahydro-2H-pyran-4-yl)-8,9-dihydro-7H-purin-2-yl)amino)picolinonitrile]",28.7,–
COc1ccc(Nc2ncc3c(n2)n(C2CCOCC2)c(=O)n3C)c(C)n1 [Compound 21],53,–
COC(=O)c1cc(Nc2ncc3c(n2)n(C2CCOCC2)c(=O)n3C)c(C)s1 [Compound 22],1.36,–
"Cc1cc(C(=O)NC(C)C)ccc1Nc1ncc2c(n1)n(C1CCOCC1)c(=O)n2C [Compound 30, N-Isopropyl-3-methyl-4-((7-methyl-8-oxo-9-(tetrahydro-2H-pyran-4-yl)-8,9-dihydro-7H-purin-2-yl)amino)benzamide]",66.6,–
"Cc1cc(C(=O)NC2CC2)ccc1Nc1ncc2c(n1)n(C1CCOCC1)c(=O)n2C [Compound 31, N-Cyclopropyl-3-methyl-4-((7-methyl-8-oxo-9-(tetrahydro-2H-pyran-4-yl)-8,9-dihydro-7H-purin-2-yl)amino)benzamide]",31,–
"CNC(=O)c1cc(C)c(Nc2ncc3c(n2)n(C2CCOCC2)c(=O)n3C)cc1F [Compound 36, 2-Fluoro-N,5-dimethyl-4-((7-methyl-8-oxo-9-(tetrahydro-2H-pyran-4-yl)-8,9-dihydro-7H-purin-2-yl)amino)benzamide]",17.9,–
"[2H]C([2H])([2H])NC(=O)c1cc(C)c(Nc2ncc3c(n2)n(C2CCOCC2)c(=O)n3C)cc1F [Compound 37, 2-Fluoro-5-methyl-N-(methyl-d3)-4-((7-methyl-8-oxo-9-(tetrahydro-2H-pyran-4-yl)-8,9-dihydro-7H-purin-2-yl)amino)benzamide]",11.9,–
Cc1[nH]c(=O)ccc1Nc1ncc2c(n1)n(C1CCOCC1)c(=O)n2C [Compound 40],39.2,–
Cc1sc(C(=O)O)cc1Nc1ncc2c(n1)n(C1CCOCC1)c(=O)n2C [Compound 41],–,"AUC ([1]; iv, 1 mg/kg): 357 ng·h/mL; half-life ([1]; iv, 1 mg/kg): 33 min; bioavailability [1]: 42.3%; AUC ([1]; po, 10 mg/kg): 1500 ng·h/mL; Cmax ([1]; po, 10 mg/kg): 2710 ng/mL; half-life ([1]; po, 10 mg/kg): 293 min"
"Cc1sc(C#N)cc1Nc1ncc2c(n1)n(C1CCOCC1)c(=O)n2C [Compound 43, 5-Methyl-4-((7-methyl-8-oxo-9-(tetrahydro-2H-pyran-4-yl)-8,9-dihydro-7H-purin-2-yl)amino)thiophene-2-carbonitrile]",9.8,–
COC(=O)c1cc(C)c(Nc2ncc3c(n2)n(C2CCOCC2)c(=O)n3C)cc1C#N [Compound 45],13.5,–
"Cc1cc(C(=O)O)c(C#N)cc1Nc1ncc2c(n1)n(C1CCOCC1)c(=O)n2C [Compound 46, 2-cyano-5-methyl-4-((7-methyl-8-oxo-9-(tetrahydro-2H-pyran-4-yl)-8,9-dihydro-7H-purin-2-yl)amino)benzoic acid]",0.99,–
"Cc1cc(C(N)=O)c(C#N)cc1Nc1ncc2c(n1)n(C1CCOCC1)c(=O)n2C [Compound 47, 2-cyano-5-methyl-4-((7-methyl-8-oxo-9-(tetrahydro-2H-pyran-4-yl)-8,9-dihydro-7H-purin-2-yl)amino)benzamide]",3.69,–
"Cc1cc(C(N)=O)c(O)cc1Nc1ncc2c(n1)n(C1CCOCC1)c(=O)n2C [Compound 50, 2-Hydroxy-5-methyl-4-((7-methyl-8-oxo-9-(tetrahydro-2H-pyran-4-yl)-8,9-dihydro-7H-purin-2-yl)amino)benzamide]",12.7,–
COC(=O)c1cc(C)c(Nc2ncc3c(n2)n(C2CCOCC2)c(=O)n3C)cc1F [Compound 51],34.1,–
"Cc1cc(=O)[nH]cc1Nc1ncc2c(n1)n(C1CCOCC1)c(=O)n2C [Compound 55, 7-Methyl-2-((4-methyl-6-oxo-1,6-dihydropyridin-3-yl)amino)-9-(tetrahydro-2H-pyran-4-yl)-7,9-dihydro-8H-purin-8-one]",14.8,–
"Cc1cc(=O)n(C)cc1Nc1ncc2c(n1)n(C1CCOCC1)c(=O)n2C [Compound 56, 2-((1,4-Dimethyl-6-oxo-1,6-dihydropyridin-3-yl)amino)-7-methyl-9-(tetrahydro-2H-pyran-4-yl)-7,9-dihydro-8H-purin-8-one]",14.3,–
"Cn1c(=O)n(C2CCOCC2)c2nc(Nc3cc(F)c(C(N)=O)cc3Cl)ncc21 [Compound 59, 5-Chloro-2-fluoro-4-((7-methyl-8-oxo-9-(tetrahydro-2H-pyran-4-yl)-8,9-dihydro-7H-purin-2-yl)amino)benzamide]",12.1,–
"Cc1cc(C(N)=O)c(F)c(C)c1Nc1ncc2c(n1)n(C1CCOCC1)c(=O)n2C [Compound 60, 2-Fluoro-3,5-dimethyl-4-((7-methyl-8-oxo-9-(tetrahydro-2H-pyran-4-yl)-8,9-dihydro-7H-purin-2-yl)amino)benzamide]",29.7,–
"Cc1cc(C(N)=O)c(F)cc1Nc1ncc2c(n1)n(C1CCOCC1)c(=O)n2C(C)C [Compound 63, 2-Fluoro-4-((7-isopropyl-8-oxo-9-(tetrahydro-2H-pyran-4-yl)-8,9-dihydro-7H-purin-2-yl)amino)-5-methylbenzamide]",50.5,–
"Cc1cc(C(N)=O)c(F)cc1Nc1ncc2c(n1)n(C1CCOCC1)c(=O)n2C1CC1 [Compound 64, 4-((7-cyclopropyl-8-oxo-9-(tetrahydro-2H-pyran-4-yl)-8,9-dihydro-7H-purin-2-yl)amino)-2-fluoro-5-methylbenzamide]",3.34,–
"Cc1cc(C(N)=O)c(F)cc1Nc1ncc2c(n1)n(C1CCC(O)C1)c(=O)n2C (stereo not shown) [Compound 67, 2-Fluoro-4-((9-(3-hydroxycyclopentyl)-7-methyl-8-oxo-8,9-dihydro-7H-purin-2-yl)amino)-5-methylbenzamide]",2.96,–
"Cc1cc(C(N)=O)c(F)cc1Nc1ncc2c(n1)n(C1CCCCC1)c(=O)n2C [Compound 68, 4-((9-cyclohexyl-7-methyl-8-oxo-8,9-dihydro-7H-purin-2-yl)amino)-2-fluoro-5-methylbenzamide]",0.01,–
"CO[C@H]1CC[C@@H](n2c(=O)n(C)c3cnc(Nc4cc(F)c(C(N)=O)cc4C)nc32)CC1 [Compound 70, 2-Fluoro-4-((9-(cis-4-methoxycyclohexyl)-7-methyl-8-oxo-8,9-dihydro-7H-purin-2-yl)amino)-5-methylbenzamide]",4.14,–
